Measurements reported in patent US10172911B2, “Methods of modulating erythropoiesis with arginine vasopressin receptor 1B molecules” (The United States of America, as represented by the …, priority 2013, dated 2019).
“Also recorded” adds a separate entry of the source.

How the values were obtained:
[1] = system: CD34^+ human hematopoietic progenitor cells; experiment: cAMP measurement in CD34+ human hematopoietic progenitor cells; assay type: cell-based; conditions: AVP 10^−10 M vs non-stimulated cells
From the text: For cAMP measurements in CD34^+ human hematopoietic progenitor cells derived from two donors. The cAMP femto 2 kit (Cat#62AM5PEB, Cisbio) was used according to manufacturers instructions. The measurements were done on a Wallac Victor2 1420 multilabel counter (Perkin Elmer).

human CD34^+ cells = experiment: Brattleboro/LE rat BMSC and human CD34+ progenitor co-culture, BrdU; assay type: cell-based; conditions: AVP 10^−13 M
Protocol: Rat BMSCs were isolated and cultured from the bone marrow of 5-6 weeks old male Brattleboro (animals that lack the ability to produce vasopressin) and Long-Evans rats (control strain for the Brattleboro rats) as described before. For flow cytometry studies, 100000 rat BMSCs per well were plated in αMEM medium (20% FBS) in 12 well plates in quadruplicates and incubated overnight. Next day, medium was removed and 200000 human CD34 cells per well were added in Stemspan medium with factors (human SCF, TPO, FLT3L and G-CSF 100 ng/ml). Co-culture was stimulated with AVP or left unstimulated (PBS) and next day BrdU was added. After 24 hours the cells were trypsinized, brought up in αMEM (20% FBS), resuspended and strained through 70 μm cell strainer. For normalization, Sigma beads were added to each sample tube. Cells were washed with FACS buffer and stained for human CD34 and CD38. The subsequent steps were done according to the BD BrdU Flow kit protocol. At flow cytometry measurements, cell numbers were normalized to Sigma bead numbers.

mice [2] = experiment: Single intraperitoneal AVP injection, bone marrow populations 16 hours later; assay type: in vivo, mouse; conditions: i.p. 100 μg/kg, bone marrow 16 hours later
Protocol: Short-term effect of a single intraperitoneal AVP injection: [Arg8]-Vasopressin (Ana-spec) (100 μg/kg body weight) together with 20 mg/kg body weight o-phenantroline (Sigma-Aldrich) or vehicle PBS with 20 mg/kg body weight o-phenantroline. 16 hours later bone marrow (two hind limbs) and spleen cells were obtained to study the distribu-tion of HSCs and multipotent progenitors (MPP) as well as intermediate lineage-com-mitted progenitors and the erythroid populations as described before (n=5/group) (Wilson et al. Cell 135, 1118-1129, doi:10.1016/j.cell.2008.10.048 (2008); Pronk, C. J. et al. Cell Stem Cell 1, 428-442, doi:10.1016/j.stem.2007.07.005 (2007); Weissman, I. L. Cell 100, 157-168 (2000). Serial AVP injections: Mice (n=8-9) were injected ip. 2 times/day with AVP 100 μg/kg body weight or PBS for 6.5 days. After day 6.5, mice were euthanized and the erythroid populations (CD71^+, Ter119^+) in spleen and bone marrow were analyzed (Cheshier, S. H. et al., Stem Cells Dev 16, 707-717, doi:10.1089/scd.2007.0017 (2007).

mice [3] = experiment: Sublethal irradiation anemia model; assay type: in vivo, mouse
Protocol: Mice were irradiated with 4.5 Grays, and 24 hours later mice were implanted with ALZET micro-osmotic pumps as described above to deliver AVP or vehicle. Mice were treated with Trimethoprim and Sulfamethoxazole (Bactrim, Septra) for 7 days before irradiation and continued the treatment for 4 weeks after irradiation. Using a pediatric formulation, the stock concentration contains 40 mg/5 ml Trimethoprim and 200 mg/5 ml Sulfa, so that the treated drinking water will deliver 0.13 mg/ml trimethoprim and 0.67 mg/ml sulfa to the mice.

mice [4] = experiment: Phenylhydrazine (hemolytic) anemia model; assay type: in vivo, mouse; conditions: day 2 and day 4
Protocol: Phenylhydrazine, a known hemolytic agent, was injected intraperitoneally by administration of phenylhydrazine hydrochloride ip. 50 mg/kg body wt. (injection volume range of 100-150 μls) on day 0 and 1 and then mice were implanted with ALZET micro-osmotic pumps as described above to deliver AVP or vehicle. Blood samples were taken at 2, 4 and in some cases 6 and 14 days later to determine hematocrit and corrected reticulocyte values.

Wnt pathway = experiment: Q-PCR and microarray of Wnt pathway genes in AVP-stimulated CD34+ cells; assay type: cell-based, human
From the text: FIGS. 3A-3D show studies of signaling pathways. FIG. 3A provides results from CFU assays showing E-CFU and GM-CFU numbers/1000 plated cells. […] Error bars represent means±SD * p<0.05, ** p<0.01, unpaired t-test. […] The cells were then fixed with 4% paraformaldehyde and washed before immunostaining. Following permeabilization with Triton-X 100 a primary antibody to β-catenin was applied followed by a fluorescent secondary antibody. The β-catenin translocated to the nucleus at the 10^−10 AVP concentration confirming the activation of the Wnt pathway. Scale: 10 μm. […] Using Q-PCR to detect changes in genes that reflect Wnt pathway activation, increases in CCND1, MYC and LEF1 in response to AVP stimulation were observed.
The resultant cDNA was amplified with QuantiTect SYBR Green RT-PCR kit (Qiagen) or with SYBR Green Supermix (Bio-Rad, Hercules, Calif.). For qPCR, cDNA (2 μls of cDNA for AVP expression and […] for OXT or beta-actin expression) was amplified with QuantiTect SYBR Green RT-PCR kit and the expression data were normalized to human beta-actin expression.

C57BL6 male mice = experiment: Hemorrhage anemia model, Alzet pump delivery; assay type: in vivo, mouse
Protocol: Mice were anesthetized with isoflurane. Twenty five percent of their calculated circulating blood volume (calculated based on Animal Research Advisory Committee Guidelines for survival bleeding of mice and rats, OACU, NIH) was drained from the retro-orbital plexus.
The reticulocyte ratio of peripheral blood was determined using the Retic-Count flow kit (BD Biosciences) according to the manufacturer's instructions. Hematocrit values were measured with an automated analyzer and microhematocrit tubes. The reticulocyte index was calculated as follows: reticulocyte ratio %/total gated cells×hematocrit/45.
To infuse vasopressin into the mice, AVP filled ALZET pumps were implanted subcutaneously on the dorsal aspect of the neck (5 ug/day, Alzet 1007D—7 days, 2002-14 days). Vasopressin was also given immediately and 6 hours later as a bolus injection (100 μg/kg). Alzet pumps were inserted subcutaneously. The dimensions and pump specification are: ALZET, (DURECT Corporation, Cupertino, Calif., USA) mini-osmotic pump models 1007D or 2002. The pumps deliver 0.5 μl/h of the desired substance for a for 2-week period. In some cases, erythropoietin antibody (100 μg/mice) was given before anesthesia with the corresponding control antibody. […] Following the initial hemorrhage blood samples were taken at 2, 4 and in some cases 6 days later to determine hematocrit and corrected reticulocyte values.

[5] = AVP stimulated CD34+ cells vs control cells

Compound: NC(=O)CC[C@@H]1NC(=O)[C@H](Cc2ccccc2)NC(=O)[C@H](Cc2ccc(O)cc2)NC(=O)[C@@H](N)CSSC[C@@H](C(=O)N2CCC[C@H]2C(=O)N[C@@H](CCCN=C(N)N)C(=O)NCC(N)=O)NC(=O)[C@H](CC(N)=O)NC1=O [AVP, [Arg8]-Vasopressin]
- cAMP in human CD34+ progenitors [1]: moderate increase in cAMP
- proliferation of CD34+ cells (human CD34^+ cells; Brattleboro-derived BMSCs): failed to induce proliferation
- proliferation of CD34+ cells (human CD34^+ cells; LE BMSCs): did cause CD34^+ cells to proliferate
- number of HSCs and early multipotent progenitors (MPPs) (mice [2]): No difference was detected
- number of red blood cell producing progenitors and blast cells (CMP, MEP, proerythroblast, erythroblasts) (mice [2]): statistically significant increase
- outcome measures (hematocrit, corrected reticulocytes) (mice [3]; sublethal irradiation, day 2 and day 4): significantly improved outcome measures on day 2 and to some extent on day 4
- hematocrit and reticulocyte numbers (mice [3]; sublethally irradiated mice): rapid elevations in hematocrit and reticulocyte numbers
- outcome measures (hematocrit, corrected reticulocytes) (mice [4]): significantly improved outcome measures on day 2 and to some extent on day 4
- LEF1 RNA (Wnt pathway; [5]): an increase (statistically not significant)
- MYC RNA (Wnt pathway; [5]): significantly more
- cyclin D1 (CCND1) RNA (Wnt pathway; [5]): significantly more
- difference in Wnt pathway genes (CDON, DKK1, DPP10, FZD7 up; CDKN2A, FST, KLF5 down) (Wnt pathway; single microarray study): over two-fold difference
- corrected reticulocyte numbers (C57BL6 male mice; 2 days post hemorrhage): significant increase; also recorded: had increased
- hematocrit (C57BL6 male mice; 2 days post hemorrhage): significant increase
- hematocrit (C57BL6 male mice; 4 days post hemorrhage): significantly higher hematocrit
- number of highly fluorescent (high intensity) reticulocytes (C57BL6 male mice; anemia models, FACS with thiazol orange): significantly increased
- hematocrits (C57BL6 male mice; between days 2 and 4 after removal of 25% of blood volume): also increased
- recovery times (C57BL6 male mice; hemorrhage, FIG. 9D): significantly improved recovery times
